The values below come from ChEMBL document CHEMBL1151072, “Benzoxepin and benzothiepin derivatives as potent, orally active inhibitors of 5-lipoxygenase” (Bioorg Med Chem Lett, 1994).

Test [1] deals with Canis familiaris. Briefly: Inhibitory activity against LTB4 production upon oral administration at a dose of 1.0 mg/Kg (0.08-6.0 hour) in dog ex vivo model. It is filed as functional. To be noted: Canis lupus familiaris.
Test [2] has as its system Canis familiaris. As to the kind of experiment: Inhibitory activity against LTB4 production upon intravenous administration at a dose of 1.0 mg/Kg (0.08-6.0 hour) in dog ex vivo model. It counts as functional. To be noted: Canis lupus familiaris.
For test [3], the system named is Canis familiaris. Briefly: Inhibitory activity against LTB4 production upon intravenous administration at a dose of 1.0 mg/Kg (0.08 hours) in dog ex vivo model. It is filed as functional. Conditions: Canis lupus familiaris.
For test [4], the system named is Canis familiaris. Briefly: Duration of action on LTB4 production upon intravenous administration at a dose of 1.0 mg/Kg in dog ex vivo model. It is filed as functional, Canis lupus familiaris.
Test [5] concerns Canis familiaris. Briefly: Inhibitory activity against LTB4 production upon oral administration at a dose of 1.0 mg/Kg (1 hour) in dog ex vivo model. It is filed as functional. To be noted: Canis lupus familiaris.
For test [6], the system named is Canis familiaris. Briefly: Inhibitory activity against LTB4 production upon intravenous administration at a dose of 1.0 mg/Kg (0.08-1 hour) in dog ex vivo model. Conditions: Canis lupus familiaris. It is filed as functional.
The subject of test [7] is Canis familiaris. As to the kind of experiment: Duration of action on LTB4 production upon oral administration at a dose of 1.0 mg/Kg in dog ex vivo model. It counts as functional, Canis lupus familiaris.
In test [8] the test system is Canis familiaris. As to the kind of experiment: Inhibitory activity against LTB4 production upon oral administration at a dose of 1.0 mg/Kg (0.25-6.0 hour) in dog ex vivo model. It counts as functional. To be noted: Canis lupus familiaris.
Test [9] concerns Canis familiaris. As to the kind of experiment: Inhibitory activity against LTB4 production upon intravenous administration at a dose of 1.0 mg/Kg (0.25-0.5 hour) in dog ex vivo model. It counts as functional. To be noted: Canis lupus familiaris.
Test [10] relates to Canis familiaris. As to the kind of experiment: Inhibitory activity against LTB4 production upon oral administration at a dose of 1.0 mg/Kg (0.5 hours) in dog ex vivo model. It is filed as functional. Conditions: Canis lupus familiaris.
Test [11] deals with Canis familiaris. As to the kind of experiment: Inhibitory activity against LTB4 production upon intravenous administration at a dose of 1.0 mg/Kg (3 hours) in dog ex vivo model. To be noted: Canis lupus familiaris. It counts as functional.
For test [12], the system named is Canis familiaris. Briefly: Inhibitory activity against LTB4 production upon oral administration at a dose of 1.0 mg/Kg (0.5-1 hour) in dog ex vivo model. It is filed as functional. Conditions: Canis lupus familiaris.
The subject of test [13] is Canis familiaris. Briefly: Inhibitory activity against LTB4 production upon intravenous administration at a dose of 1.0 mg/Kg (0.08-0.5 hour) in dog ex vivo model. It counts as functional. To be noted: Canis lupus familiaris.

As for `NC(=O)N(O)CC1=Cc2cc(Oc3ccccc3)ccc2OC1`, the inhibition in vivo at 1 mg/kg in [1] and in test [2] was above 95% each time.
Regarding `NC(=O)N(O)CC1=Cc2ccc(Oc3ccccc3)cc2OCC1`, the inhibition in vivo at 1 mg/kg in test [3] was above 95%; in [5], 28%. Moreover, the Duration of action in test [4] is listed as 1.1.
With `NC(=O)N(O)CC1=Cc2cc(Oc3ccccc3)ccc2SCC1`, the Duration of action in [4] turned out to be 2.8. The inhibition in vivo at 1 mg/kg in [6] is above 95%.
For the compound `CNC(=O)N(O)CC1=Cc2cc(Oc3ccc(F)cc3)ccc2OCC1`, the Duration of action in test [7] and in test [4] was 13 in each case. Further, the inhibition in vivo at 1 mg/kg in test [8] and in test [6] was above 95% throughout.
`NC(=O)N(O)CC1=Cc2cc(Oc3ccc(F)cc3)ccc2OCC1`: the results for the Duration of action in [7] and in test [4] were 10 and above 24, respectively. Further, the inhibition in vivo at 1 mg/kg in [5] and in test [9] was above 95% each time.
On to `NC(=O)N(O)CC1=Cc2cc(Oc3ccccc3)ccc2OCC1`, for which the inhibition in vivo at 1 mg/kg in [10] turned out to be 94%; in test [11] it was 80%. For the same compound, the Duration of action stood at 9.1 in test [7] and 19.4 in [4].
In the case of `CC(c1cc2ccccc2s1)N(O)C(N)=O` (stereo unspecified) [ZILEUTON], the inhibition in vivo at 1 mg/kg in test [12] and in test [13] was above 90% in each case.

One may read the inhibition in vivo as the relative decrease from the control value, in per cent. A higher inhibition in vivo goes with a response far below the control.
